Where a name gives a salt, the structure may show the parent alone. Read-outs that look alike come from different tables or passages of the source.
Tests used:
[1] = Solubility of the isolated product; conditions: for solubility in water (in words) / solubility: water
[2] = Reduction of lipids and cholesterol in rats treated orally; format: in vivo; conditions: for inhibition in vivo at 20 mg/kg / inhibition in vivo at 100 mg/kg: Rattus norvegicus, 96 h; for inhibition in vivo at 20 mg/kg: oral 20 mg/kg
[3] = normal diet, oral 50 mg/kg daily, 3 and 5 days

CC(Oc1ccccc1Sc1ccc(Cl)cc1)C(=O)OCCNCCSCCCCCCCCCCSCCNCCOC(=O)C(C)Oc1ccccc1Sc1ccc(Cl)cc1 (racemic) [CRL 40 247, 6,17-Dithia-3,20-diaza-1,22-docosanediol di-(±)-[2-(4-chlorophenylthio)phenoxy-propionate]]
solubility in alcohol (in words) [1]: soluble in alcohol
solubility in water (in words) [1]: insoluble in water

CC(CNCCO)Oc1ccc(Oc2ccc(Cl)cc2)cc1.Cl (racemic) [CRL 40 301, (±)-N-Hydroxyethyl-2-[4-(4-chlorophenoxy)-phenoxy]-1-propylamine hydrochloride]
solubility [1]: 200 mg/mL

CC(CNC(C)(C)CO)Oc1ccc(Oc2ccc(Cl)cc2)cc1.Cl (racemic) [CRL 40 302, (±)-N-(β-Hydroxy-α,α-dimethylethyl)-2-[4-(4-chlorophenoxy)-phenoxy]-1-propylamine hydrochloride]
solubility [1]: 200 mg/mL

CC(Oc1ccc(Sc2ccc(Cl)cc2)cc1)C(=O)O (racemic) [CRL 40,246, (±)-2-[4-Chlorophenylthio)-phenoxy]-propionic acid]
solubility in alcohol (in words) [1]: soluble in alcohol
solubility in water (in words) [1]: insoluble in water

CC(Sc1ccc(Oc2ccc(Cl)cc2)cc1)C(=O)O (racemic) [CRL 40,281, (±)-2-[4-(4-chlorophenoxy)-phenylthio]-propionic acid]
solubility in water (in words) [1]: insoluble in water

CC(Oc1ccc(Oc2ccc(Cl)cc2)cc1)C(=O)O (racemic) [CRL 40,299, (±)-2-[4-(4-Chlorophenoxy)-phenoxy]-propionic acid]
solubility in water (in words) [1]: insoluble in water

CC(Sc1ccc(Sc2ccc(Cl)cc2)cc1)C(=O)O (racemic) [CRL 40,351, (±)-2-[p-(p-Chlorophenylthio)-phenylthio]-propionic acid]
solubility in water (in words) [1]: water-insoluble

CC(Oc1ccc(Sc2ccc(Cl)cc2)cc1)C(=O)OCCSCCCCCCCCCCSCCOC(=O)C(C)Oc1ccc(Sc2ccc(Cl)cc2)cc1 (racemic) [CRL 40,390, 3,14-Dithia-1,16-hexadecyl di-(±)-{2-[p-(p-chlorophenylthio)-phenoxy]-propionate}]
inhibition in vivo at 20 mg/kg ([2]; 4 days, read-out: reduction in the cholesterol): 25%
inhibition in vivo at 20 mg/kg ([2]; 4 days, read-out: reduction in the lipids): 25%

CC(COC(=O)CSc1ccc(Sc2ccc(Cl)cc2)cc1)SCCCCCCCCCCSC(C)COC(=O)CSc1ccc(Sc2ccc(Cl)cc2)cc1 (racemic) [CRL 40,395, (±)-2,15-Dimethyl-3,14-dithia-1,16-hexadecyl di-[p-(p-chlorophenylthio)-phenylthio-acetate]]
inhibition in vivo at 100 mg/kg ([2]; oral 100 mg/kg, 4 days): 27%
reduction in the (total) lipids ([2]; oral 100 mg/kg, 4 days): 18%

CC(Sc1ccc(Sc2ccc(Cl)cc2)cc1)C(=O)OCCSCCCCCCCCCCSCCOC(=O)C(C)Sc1ccc(Sc2ccc(Cl)cc2)cc1 (racemic) [CRL 40,398, 3,14-Dithia-1,16-hexadecyl di-(±)-{2-[p-(p-chlorophenylthio)-phenylthio]-propionate}]
change in the cholesterol content (in words) ([2]; oral 100 mg/kg, 4 days): no change in the cholesterol content
reduction in the (total) lipids ([2]; oral 100 mg/kg, 4 days): 17%

CC(COC(=O)C(C)(C)Sc1ccc(Sc2ccc(Cl)cc2)cc1)SCCCCCCCCCCSC(C)COC(=O)C(C)(C)Sc1ccc(Sc2ccc(Cl)cc2)cc1 (racemic) [CRL 40,403, (±)-2,15-Dimethyl-3,14-dithia-1,16-hexadecyl di-{2-[p-(p-chlorophenylthio)-phenylthio]-2-methylpropionate}]
inhibition in vivo at 100 mg/kg ([2]; oral 100 mg/kg, 4 days): 32%
reduction in the (total) lipids ([2]; oral 100 mg/kg, 4 days): 10%

CC(Sc1ccc(Oc2ccc(Cl)cc2)cc1)C(=O)OCCSCCCCCCCCCCSCCOC(=O)C(C)Sc1ccc(Oc2ccc(Cl)cc2)cc1 (racemic) [CRL 40,408, 3,14-Dithia-1,16-hexadecyl di-(±)-{2-[p-(p-chlorophenoxy)-phenylthio]-propionate}]
inhibition in vivo at 100 mg/kg ([2]; oral 100 mg/kg, 4 days): 20%
reduction in the (total) lipids ([2]; oral 100 mg/kg, 4 days): 17%

CC(COC(=O)C(C)Sc1ccc(Oc2ccc(Cl)cc2)cc1)SCCCCCCCCCCSC(C)COC(=O)C(C)Sc1ccc(Oc2ccc(Cl)cc2)cc1 (racemic) [CRL 40,409, (±)-2,15-Dimethyl-3,14-dithia-1,16-hexadecyl di-(±)-{2-[p-(p-chlorophenoxy)-phenylthio]-propionate}]
reduction in the (total) lipids ([2]; oral 100 mg/kg, 4 days): 9-10%

CC(Oc1ccc(S(=O)(=O)c2ccc(Cl)cc2)cc1)C(=O)OCCNCCSCCCCCCCCCCSCCNCCOC(=O)C(C)Oc1ccc(S(=O)(=O)c2ccc(Cl)cc2)cc1 (racemic) [CRL 40249, 6,17-Dithia-3,20-diaza-1,22-docosanediol di-(±)-2-[p-(p-chlorophenylsulphonyl)-phenoxy]-propionate]
solubility in alcohol (in words) [1]: insoluble in water and in alcohol
solubility in water (in words) [1]: insoluble in water

CC(COS(C)(=O)=O)Oc1ccc(Oc2ccc(Cl)cc2)cc1 (racemic) [Example 34, (±)-2-[4-(4-Chlorophenoxy)-phenoxyl]-propyl mesylate]
solubility in water (in words) [1]: insoluble in water

CC(C)(Oc1ccc(Sc2ccc(Cl)cc2)cc1)C(=O)OCCNCCSCCCCCCCCCCSCCNCCOC(=O)C(C)(C)Oc1ccc(Sc2ccc(Cl)cc2)cc1 [CRL 40 240, 6,17-Dithia-3,20-diaza-1,22-docosanediol di-p-(p-chlorophenylthio)-phenoxy-isobutyrate]
solubility in alcohol (in words) [1]: soluble in alcohol
solubility in water (in words) [1]: insoluble in water

CC(C)(Oc1ccc([S+]([O-])c2ccc(Cl)cc2)cc1)C(=O)OCCNCCSCCCCCCCCCCSCCNCCOC(=O)C(C)(C)Oc1ccc([S+]([O-])c2ccc(Cl)cc2)cc1 (centres unmarked) [CRL 40 242, 6,17-Dithia-3,20-diaza-1,22-docosanediol di-[4-(4-chlorosulphinyl)-phenoxy-isobutyrate]]
solubility in alcohol (in words) [1]: soluble in alcohol
solubility in water (in words) [1]: insoluble in water

CC(C)(Oc1ccc(Sc2ccc(Cl)cc2)cc1)C(=O)N(CCO)CCSCCCCCCCCCCSCCN(CCO)C(=O)C(C)(C)Oc1ccc(Sc2ccc(Cl)cc2)cc1 [CRL 40 254, 3,20-di[p-(p-chlorophenylthio)phenoxy-isobutyryl]-6,17-dithia-3,20-diaza-1,22-docosanediol]
solubility in water (in words) [1]: insoluble in water

CC(C)(Oc1ccc(Oc2ccc(Cl)cc2)cc1)C(=O)NCCO [CRL 40 309, N-Hydroxyethyl-2-[4-(4-chlorophenoxy)-phenoxy]-2-methylpropionamide]
solubility in water (in words) [1]: insoluble in water

CC(C)(CNCCO)Oc1ccc(Oc2ccc(Cl)cc2)cc1 [CRL 40 311, N-Ethanol-2-[4-(4-chlorophenoxy)-phenoxy]-2-methyl-1-propylamine hydrochloride]
solubility in water (in words) [1]: soluble in water

Cl.NC(COc1ccc(Oc2ccc(Cl)cc2)cc1)=NO [CRL 40 337, 4-(4-Chlorophenoxy)-phenoxy-acetamidoxime hydrochloride]
solubility in water (in words) [1]: partially soluble in water

Cl.N=C(N)COc1ccc(Oc2ccc(Cl)cc2)cc1 [CRL 40 338, 4-(4-Chlorophenoxy)-phenoxy-acetamidine hydrochloride]
solubility in water (in words) [1]: soluble in water

CC(C)(Oc1ccc(S(=O)(=O)c2ccc(Cl)cc2)cc1)C(=O)O [CRL 40,239, 4-(4-chlorophenylsulphonyl)-phenoxy-isobutyric acid]
solubility in alcohol (in words) [1]: soluble in alcohol
solubility in water (in words) [1]: insoluble in water

CC(C)(Sc1ccc(Oc2ccc(Cl)cc2)cc1)C(=O)O [CRL 40,275, 4-(4-chlorophenoxy)-phenylthio-isobutyric acid]
solubility in water (in words) [1]: insoluble in water

CC(C)(CNCCO)Sc1ccc(Oc2ccc(Cl)cc2)cc1 [CRL 40,279, N-Hydroxyethyl-4-(4-chlorophenoxy)phenylthio-isobutylamine]
solubility in water (in words) [1]: insoluble in water

O=C(CSc1ccc(Oc2ccc(Cl)cc2)cc1)OCCSCCCCCCCCCCSCCOC(=O)CSc1ccc(Oc2ccc(Cl)cc2)cc1 [CRL 40,284, 3,14-Dithia-1,16-hexadecyl di-[p-(p-chlorophenoxy)-phenylthio-acetate]]
solubility in water (in words) [1]: water-insoluble

CC(C)(Oc1ccc(Oc2ccc(Cl)cc2)cc1)C(=O)O [CRL 40,308, 4-(4-Chlorophenoxy)-phenoxy-isobutyric acid]
solubility in water (in words) [1]: insoluble in water

CC(C)(Oc1ccc(S(=O)(=O)c2ccc(Cl)cc2)cc1)C(=O)OCCNCCSCCCCCCCCCCSCCNCCOC(=O)C(C)(C)Oc1ccc(S(=O)(=O)c2ccc(Cl)cc2)cc1 [CRL 40241, 6,17-Dithia-3,20-diaza-1,22-docosanediol di-p-(p-chlorophenylsulphonyl)-phenoxy-isobutyrate]
solubility in hot alcohol (in words) ([1]; hot alcohol): soluble in hot alcohol
solubility in water (in words) [1]: insoluble in water

p-(p-Chlorophenylthio)-phenylthioacetic acid [CRL 40,386]
reduction in the concentration of cholesterol in the plasma [2, 3]: about 20%
reduction in the concentration of lipids in the plasma [2, 3]: about 20%
reduction in the (total) lipids ([2]; oral 100 mg/kg, 4 days): 42%
reduction in the cholesterol ([2]; oral 100 mg/kg, 4 days): 26%

Reference: US4156011A, “Sulphur- and oxygen-containing diaryl compounds” (priority 1974, dated 1979)
